Ends that are not written are not given here. BA1 = not defined here
How the values were obtained:
Format in all cases: biochemical
[1] = target: T1, protein kinase A (Bos taurus, UniProt P00517); assay: Phosphorylation of glass-immobilised peptide array by protein kinase A (FIG. 9, Example 33); details: protein kinase A 10 U/mL, ATP/γ32P-ATP, 30 min at 25° C., maleinimido-functionalised glass, PhosphorImager
T1 construct: purchased Sigma P26452 as printed
Description: FIG. 9. Precisely 43 serine and/or threonine-containing peptides (potential substrate peptides for kinases) and the corresponding control peptides, each modified at the N-terminus with the dipeptide cysteinyl-β-alanine, were coupled to a maleinimido-functionalised glass surface by a Michael addition (Example 18). In the control peptides the serine and/or threonine residues were replaced by alanine, the sequence remaining otherwise the same. The application was carried out using a NanoPlotter from Gesim. The spot-to-spot distance was 1 mm and 0.8 nL of a peptide solution in 100 mM PBS buffer pH 7.8, containing 20% glycerin, was applied per spot. Here a filled circle represents a serine- or threonine-containing potential substrate peptide and an open circle stands for a control peptide. Three identical subarrays were applied to the glass surface. The numbering of the spots can be seen in FIG. 9C, the sequences of the peptides used are obtained from Example 18. […] After incubation for 30 min at 25° C. the phosphorylation of the corresponding peptides was detected using a FUJIFILM PhosphorImager (Example 39). […]
(§1) After drying the glass surface the quantity of radioactive phosphate incorporated in the glass-surface-bound peptides was determined using a PhosphorImager system (FLA-3000, FUJIFILM). […]

[2] = tested on: protein kinase C; assay: Phosphorylation of glass-immobilised peptide array by protein kinase C (FIG. 8, Example 32); details: protein kinase C 10 U/mL, ATP/γ32P-ATP, 30 min at 25° C., maleinimido-functionalised glass, PhosphorImager
Description: FIG. 8. Precisely 43 serine and/or threonine-containing peptides (potential substrate peptides for kinases) and the corresponding control peptides, each modified at the N-terminus with the dipeptide cysteinyl-β-alanine, were coupled to a maleinimido-functionalised glass surface by a Michael addition (Example 18). In the control peptides the serine and/or threonine residues were replaced by alanine, the sequence remaining otherwise the same. The application was carried out using a NanoPlotter from Gesim. The spot-to-spot distance was 1 mm and 0.8 nL of a peptide solution in 100 mM PBS buffer pH 7.8, containing 20% glycerin, was applied per spot. Here a filled circle represents a serine- or threonine-containing potential substrate peptide and an open circle stands for a control peptide. Three identical subarrays were applied to the glass surface. The numbering of the spots can be seen in FIG. 8C, the sequences of the peptides used are obtained from Example 18. After application of the peptides, the modified glass surface was first pre-incubated for 10 minutes using 10 ml of 100 μM ATP solution in 50 mM of sodium phosphate buffer pH 7.5. The modified glass surface was then covered with a second glass surface and Protein kinase C (10 U/mL) together with ATP/γ^32P-ATP mixture (100 μM/mL; 100 μCi/mL) was then inserted into the intermediate space formed thereby by means of capillary force. After incubation for 30 min at 25° C. the phosphorylation of the corresponding peptides was detected using a FUJIFILM PhosphorImager (Example 38). The spots having higher signal intensity in all three subarrays were assigned to the corresponding peptides phosphorylated by the protein kinase C. […] It is thus clear that such an assembly is suitable for characterising the substrate specificity of a kinase, such as protein kinase C, for example.
Precisely 43 serine- and/or threonine-containing peptides (potential substrate peptides for kinases) and the corresponding control peptides, each modified at the N-terminus with the dipeptide cysteinyl-β-alanine, were coupled to a maleinimido-functionalised glass surface by a Michael addition (see Example 18). The numbering of the spots can be seen from FIG. 8C and the sequences of the peptides used are obtained from Example 18. After application of the peptide, the modified glass surface was first pre-incubated using 10 mL of 100 μM ATP […] solution in 50 mM sodium phosphate buffer pH 7.5 for […] minutes. The modified glass surface was then covered with a cover glass and protein kinase C (10 U/mL) together with ATP/γ-^32P-ATP mixture (100 μM/mL; 100 μCi/mL) was incorporated in the intermediate space formed by means of capillary force. Incubation was then carried out for 30 min at 25° C. […]
as §1

[3] = target: T1, protein kinase A; assay: Incubation of modified glass surface (11760 spots) with protein kinase A (FIG. 6, Example 28); details: bromoketone-functionalised glass, thioamide linkage, protein kinase A 10 U/mL, 30 min at 25° C.
Description: FIG. 6. A glass surface modified with the peptide Leu-Arg-Arg-Ala-Ser-Leu-Gly-thioamide (see Example 24) amino acid sequence was dissolved in 200 mM sodium phosphate buffer pH 5.5 and at room temperature respectively 1 nL of this solution in an assembly of 70 rows and 168 gaps (total 11760) was applied to the bromoketone-functionalised glass surfaces (Example 10) using a NanoPlotter from Gesim. The spot-to-spot distance was 0.3 mm. The glass surfaces thus treated were then subjected to microwave treatment for 2 min and then incubated for 3 hours at room temperature. Pre-incubation was then carried out for 10 minutes using 10 ml of 100 μM ATP solution in 50 mM of sodium phosphate buffer pH 7.5. […] After incubation for 30 min at 25° C. the phosphorylation of the corresponding peptides was detected using a FUJIFILM PhosphorImager. […] It is furthermore clear that the resolution of the PhosphorImager used here is sufficient to analyse more than 11000 measurement points per biochip. […]
After drying the glass surface the quantity of radioactive phosphate incorporated in the glass-surface-bound peptides was determined using a PhosphorImager system (FLA-3000, FUJIFILM) (see FIG. 6).

recognised and phosphorylated by protein kinase C on the modified glass surface [2]	Substance	other results
	Arg-Arg-Ile-Ser-Lys-Asp-Asn-Pro-Asp-Tyr-Gln-Gln-Asp-BA1-Cys-NH2 (RRISKDNPDYQQD-{BA1-Cys-NH2}; reading uncertain; also: printed as Arg-Arg-Ile-Ser-Lys-Asp-Asn-Pro-Asp-Tyr-Gln-Gln-Asp-BA1-Cys-NH2) [peptide 83]	recognised and phosphorylated by protein kinase A on the modified glass surface [1]: not phosphorylated
recognised and phosphorylated	Cys-BA1-Ala-Lys-Arg-Arg-Arg-Leu-Ser-Ser-Leu-Arg-Ala-NH2 ({Cys-BA1}-AKRRRLSSLRA-NH2; reading uncertain; also: printed as Cys-BA1-Ala-Lys-Arg-Arg-Arg-Leu-Ser-Ser-Leu-Arg-Ala-NH2) [compound 3]	
recognised and phosphorylated	Cys-BA1-Gln-Lys-Arg-Pro-Ser-Gln-Arg-Ser-Lys-Tyr-Leu-NH2 ({Cys-BA1}-QKRPSQRSKYL-NH2; reading uncertain; also: printed as Cys-BA1-Gln-Lys-Arg-Pro-Ser-Gln-Arg-Ser-Lys-Tyr-Leu-NH2) [compound 27]	
recognised and phosphorylated	Cys-BA1-Lys-Lys-Arg-Phe-Ser-Phe-Lys-Lys-Ser-Phe-Lys-Leu-NH2 ({Cys-BA1}-KKRFSFKKSFKL-NH2; reading uncertain; also: printed as Cys-BA1-Lys-Lys-Arg-Phe-Ser-Phe-Lys-Lys-Ser-Phe-Lys-Leu-NH2) [compound 41]	
recognised and phosphorylated	Cys-BA1-Pro-Leu-Ser-Arg-Thr-Leu-Ser-Val-Ala-Ala-Lys-Lys-NH2 ({Cys-BA1}-PLSRTLSVAAKK-NH2; reading uncertain; also: printed as Cys-BA1-Pro-Leu-Ser-Arg-Thr-Leu-Ser-Val-Ala-Ala-Lys-Lys-NH2) [compound 23]	
	Leu-Arg-Arg-Ala-Ser-Leu-Gly-thioamide (LRRASLG-thioamide)	linking of the immobilised kinase substrate tolerated by protein kinase A [3]: tolerated by the protein kinase A

Substance	recognised and phosphorylated by protein kinase C on the modified glass surface [2]	other results
Cys-BA1-Pro-Lys-Asp-Pro-Ser-Gln-Arg-Arg-Arg-NH2 ({Cys-BA1}-PKDPSQRRR-NH2; reading uncertain; also: printed as Cys-BA1-Pro-Lys-Asp-Pro-Ser-Gln-Arg-Arg-Arg-NH2) [compound 43]	recognised and phosphorylated	
